We go through seven compounds from patent US20030134865A1, “Modulation of histone deacetylase” (priority 2003, published 2003).

≈ marks a conversion by molar mass, not a printed value. Where “and” joins values, the source holds several entries; their conditions need not be identical. Equal entries are not always repeated.

Experiment [1] deals with SLPI production, A549 cells. As to the kind of experiment: SLPI production by A549 cells (ELISA). The experiment is classed as cell-based. As to the method:
A549 cells were grown to 50% confluence in Dulbecco's modified medium (DMEM) containing 10% fetal calf serum (FCS) before incubation for 48-72 hr in serura-free media.
Determination of GM-CSF expression was measured by sandwich ELISA (Pharmingen, Lugano, Switzerland) according to the manufacturer's instructions. For immunoassay of SLPI and acetylated histone, polystyrene microtitre plates were coated overnight at 4° C. with sample diluted with hydroxy carbonate (pH 9.6). Plates were blocked for 2 hr with 5 % ovalbumin in PBS. Antibodies against SLPI (R&D Systems Europe, Abingdon, UK), K5, K8, K12 and K16 acetylated histone 4 (Serotec, Oxford, UK) were diluted 1:300-1:1000 and added to each plate. After 1 hr at room temperature plates were washed sequentially with 0.1% Tween20-PBS and incubated with HRP conjugated goat anti-rabbit antibody (DAKO, Cambridge, UK) for 1 hr. Detection was performed with ABTS following Pharmingen instructions. Recombinant human SLPI (R&D Systems Europe) was used as a standard. As a standard for acetylated histone, crude extracted histone from A549 cells incubated with TSA (100 ng/ml) for 6 hr was used, and the value was calculated in units, where 1 unit is equivalent to the absorbance of 50 ng of TSA-treated hyperacetylated histone after subtraction of BSA-induced histone acetylation.
(In general: An ELISA detects its analyte on a solid surface through an enzyme-linked reagent.)

For experiment [2], the system named is GM-CSF release, A549 cells. Kind of experiment: GM-CSF release from A549 cells (ELISA).
Experimental: GM-CSF ELISA: Determination of GM-CSF expression was measured by sandwich ELISA (Pharmingen, Lugano, Switzerland) according to the manufacturer's instructions.
The subject of experiment [3] is histone deacetylase (HDAC) activity, A549 cells. As to the kind of experiment: Histone deacetylation activity in total cellular extracts of treated A549 cells. Conditions: 6 hrs.
Experimental: (B) Effect of Trichostatin A (TSA) on histone deacetylase activity and histone H4 acetylation. Cells were treated with increasing concentrations of TSA for 6 hrs before total cellular proteins were isolated and analysed for deacetylase activity and also histone acetylation by Western blotting using an anti-pan acetylated histone H4 antibody.
Effect of theophylline on histone deacetylase (HDAC) activity in A549 cells. (a) Cells were stimulated with LPS (3 ng/ml) for 24 hours in the presence or absence of theophylline (10^−5 M) or Dex (10^−6 M). Total cellular proteins were extracted and histone deacetylase activity measured. (b) Direct effect of theophylline on HDAC activity. […] Results are expressed as mean±SEM (n=3-5, *p<0.05, **p<0.01).
In experiment [4] the test system is histone acetylation, A549 cells. Kind of experiment: Histone acetylation, [3H]-acetate incorporation in whole A549 cells. The experiment is classed as cell-based. The source says: Histones were isolated and separated by SDS-PAGE and [^3H]-acetate incorporated histones were counted and normalised to protein level. […] Data represents mean±SEM of 3 independent experiments. **p<0.01.

The test system of the next experiment is HDAC activity. Kind of experiment: Direct effect on HDAC activity of nuclear proteins from untreated A549 cells. The experiment is classed as biochemical. Conditions: for effect on theophylline-induced increased HDAC activity: inhibitor 1 μM. Here is the method: FIG. 13. […] (a) Direct effect of the PDE4 inhibitor rolipram (10 μM) and the adenosine receptor antagonist CGS-15943 (10 μM) on HDAC activity. […] (b) Direct effect of the MEK inhibitor PD089159 (1 μM) and the p38 MAPK inhibitor SB203580 on theophylline induced HDAC activity.

The test system of experiment [5] is histone H4 lysines K5, K8, K12, K16. Kind of experiment: Immunocytochemical staining for acetylated histone H4 lysine residues. The experiment is classed as cell-based. Particulars: 6 hr. Here is the method: Immunocytochemical staining for specific histone H4 acetylated lysine residues. […] Results are representative of 4 independent experiments.
Cells were washed with Hanks solution, and air-dried for 30 min at RT. Cells were then fixed in ice-cold acetone-methanol (50/50, w/w) (−20° C.) for 10 min. Slides were air dried and incubated with blocking buffer (20% normal swine serum in PBS, 0.1% saponin)(Dako) for 20 mmn followed by 1 hr incubation with primary antibody solution (PBS, 0.1% saponin, 1% BSA). Antibodies against pan-acetylated H4, H4-K5, H4-K8, H4-K12 and H4-K16 (Serotec) were used at 1:100 to 1:300 dilution. Slides were washed twice and incubated with biotinylated swine anti-rabbit IgG (Dako)(1:200) for 45 min. Slides were washed again before incubation with fluorescein isothiocyante-conjugated streptavidine (1:100) for 45 min. The slides were washed twice more before counterstaining with 20% haematoxyline, and mounting. Stained cells were observed by confocal microscopy. Confocal scanning laser microscopy images were collected with a Leica confocal microscope, equipped with a 488/514 nm dual band argon ion laser. An oil-immersion objective was used and images were collected using TCSNT software.

Experiment [6] deals with p65-associated histone acetylation. Kind of experiment: p65-immunoprecipitated histone acetylation (IP-HAT assay). Particulars: IL-1β stimulation. The experiment is classed as cell-based.
Experimental: Total cellular proteins were isolated and p65 associated proteins immunoprecipitated under stringent conditions (see methods). The associated histone acetylation activity was measured following incubation of the p65-IP extract with 10 μg free core histones and 0.25 mCi of ^3H-acetyl CoA for 45 minutes.
Histone acetylation experiments were performed as in (A) in the presence of TSA (100 ng/ml).
Extracts were prepared using 100 μl of stringent immunoprecipitation (IP) buffer (50 mM Tris-HCl, pH 8.0, 150 mM NaCl, 1.0% triton X-100, 0.5% NP-40, 0.1% SDS, 0.5% deoxycholate, complete protease inhibitor cocktail (Boehringer-Mannheim)) or mild IP buffer (10 mM Tris-HCl, pH 8.0, 150 mM NaCl, 0.5% NP-40, complete protease inhibitor cocktail (Boehringer-Mannheim)). […] After microcentrifugation, 20 μl of A/G agarose conjugated with 5 μg of antibody were used to precipitate CBP, PCAF, GR or p65 overnight at 4° C. with rotation.
Immune complexes with resin were resuspended in 150 μl of HAT buffer (50 mM Tris-HCl, pH 8.0, 10% glycerol, 1 mM dithiothreitol, 0.1 mM EDTA, complete protease inhibitor cocktail). Typically, 20 μl of free core histone solution extracted from A549 cells (final amount 10 μg) and 30 μl of immunoprecipitate were incubated. Reactions were initiated by the addition of 0.25 mCi of [^3H] acetyl-CoA (5 Ci/mmol)(Amersham) and performed for 45 min at 30° C.
The subject of a further experiment is HAT activity. As to the kind of experiment: Direct effect on HAT activity. The experiment is classed as biochemical. Particulars: IBMX 500 μM, rolipram 10 μM, CGS-15943 10 μM.

For `CC(/C=C/C(=O)NO)=C\[C@@H](C)C(=O)c1ccc(N(C)C)cc1` [TSA, trichostatin A], the SLPI production in experiment [1] (IL-1β 1 ng/ml after pretreatment with TSA 1 ng/ml, versus 6.0±0.5) was 8.2 ± 0.3 ng/mL. Also, the “IL-1β-induced GM-CSF release” value in experiment [2] (IL-1β 1 ng/ml plus TSA 1 ng/ml, versus 157±6 without TSA) was 233 ± 12 ng/mL. Further, the “effect of TSA on dexamethasone (10^−6 M) suppression of GM-CSF release” value in experiment [2] (IL-1β plus H2O2) is “unable to block”. In addition, in experiment [2] (IL-1β plus H2O2), the “effect of TSA on suppression of GM-CSF release by combined treatment” value is listed as “blocked”. The “effect of TSA pre-treatment on repression of GM-CSF release by combined treatment” value in experiment [2] (IL-1β-stimulated) is on record as “blocked”. Further, in experiment [2] (IL-1β-stimulated, with or without dexamethasone 10^−6 M), the “GM-CSF release in the presence of TSA” value was determined as 969 ± 84 pg/mL. In addition, the “IC50, decrease in HDAC activity” value in experiment [3] (A549 cells) was determined as 1.1 ng/mL (≈ 3.64 nM). The “HDAC activity in A549 cells” value in experiment [3] (TSA, increasing concentrations, decrease from 112±21) is on record as 11±3 dpm/ng protein. Moreover, the “basal histone acetylation with TSA” value in experiment [4] (TSA 1 ng/ml) was found to be 162±21 dpm/μg protein. In addition, in experiment [4] (TSA 1 ng/ml, versus 71±9), the “dexamethasone-induced histone acetylation with TSA” value came to 984±50 dpm/μg protein. Besides, the “IL-1β-stimulated histone acetylation with TSA” value in experiment [4] (TSA 1 ng/ml, versus 137±15) was found to be 1543±143 dpm/μg protein; in experiment [4] (TSA 100 ng/ml, versus 71±9), 1543±143 dpm/μg protein. In addition, the “IL-1β plus dexamethasone (10^−10 M)-stimulated histone acetylation with TSA” value in experiment [4] (TSA 100 ng/ml, versus 37±5) is recorded as 435±28 dpm/μg protein.
Take lipopolysaccharide [LPS]: in experiment [3] (LPS), the “reduction of total cell HDAC activity” value came out at 30%.
Regarding `C[S+]([O-])c1ccc(-c2nc(-c3ccncc3)c(-c3ccc(F)cc3)[nH]2)cc1` (centres unmarked) [SB203580], in the experiment with HDAC activity, the “effect on theophylline-induced increased HDAC activity” value was “significantly inhibited”.
On to `COc1cccc(-c2cc(=O)c3ccccc3o2)c1N` [PD089059], for which, in the experiment with HDAC activity, the “effect on theophylline-induced increased HDAC activity” value was “failed to have any effect”.
Turning to “IL-1β: interleukin used to stimulate A549 cells (1 ng/ml)”, in experiment [5], the “acetylated histone H4 K8” value came out at 42±15 % positive nuclei and the “acetylated histone H4 K12” value was found to be 37±4 % positive nuclei. Besides, the SLPI production in experiment [1] (IL-1β 1 ng/ml, versus 1.2±0.3 control) was 6.0 ± 0.5 ng/mL. Further, in experiment [2] (A549 cells), the “IL-1β-stimulated GM-CSF release” value turned out to be 714 ± 94 pg/mL. In experiment [2] (IL-1β 1 ng/ml), the “increase in GM-CSF release” value amounted to 30 fold. Further, the “GM-CSF within the culture supernatant” value in experiment [2] (IL-1β 1 ng/ml, 6 hr, untreated cells 30±10) is 157 ± 6 ng/mL. Moreover, in experiment [6], the “increase of p65-immunoprecipitated histone acetylation” value is listed as 9-10 fold. Further, the “histone acetylation, IL-1β alone” value in experiment [4] (IL-1β 1 ng/ml, whole cell incorporation) is 137±15 dpm/μg protein and 71±9 dpm/μg protein. The “histone acetylation 30 min after IL-1β-stimulation” value in experiment [4] (versus 18±4) was 41±6 dpm/μg protein. The “increase in histone acetylation” value in experiment [4] (whole cell) is 4-5 fold and 4 fold.
`OO` [H2O2]: in experiment [2] (A549 cells), the “GM-CSF release, IL-1β plus H2O2” value is 2054 ± 342 pg/mL.
In the case of `CC(C)Cn1c(=O)n(C)c(=O)c2[nH]cnc21` [IBMX], the “direct effect on HAT activity” value in the experiment on HAT activity was “no direct effect”. The “direct effect on HDAC activity” value in the experiment with HDAC activity (nuclear extracts, IBMX 500 μM, rolipram 10 μM, CGS-15943 10 μM) is reported as “no direct effect”.
